Results: patent US5703129A, “5-amino-6-cyclohexyl-4-hydroxy-hexanamide derivatives as inhibitors of β-amyloid protein production” (Bristol-Myers Squibb Company, priority 1996, dated 1997)
Structures can show the parent of a compound that is named as a salt.

target: T1, γ-Secretase (Homo sapiens, UniProt P49768); assay: Inhibition of γ-secretase: ELISA of β-AP made by transfected H4 cells in culture; assay type: cell-based; conditions: H4 (human neuroglioma) cells expressing β-APP (Swedish variant typically), approximately 16 hours incubation, β-AP in conditioned medium by ELISA
T1 construct: transfected H4 (human neuroglioma) cells stably expressing constructs containing wild-type and mutant forms of β-APP; endogenous in cells; host or cells: H4 human neuroglioma cells, stably transfected with beta-APP (the substrate, not the enzyme)
Text: Production and detection of β-AP made by cells in culture. The use of transfected H4 (human neuroglioma) cells stably expressing constructs containing wild-type and mutant forms of β-APP have been used to identify inhibitors of β-AP production. The Swedish variant of β-APP produces 5-7 fold more β-AP than the wild type and is typically used due to its enhanced signal. […] The capture antibody is typically a mouse monoclonal (IgG1/kβ-APPa). The antibody recognizes the carboxyl terminal epitope of β-AP. The specificity of the capture antibody ensures measurement of β-AP without interference by other secreted β-APP fragments that share amino acid sequence (β-AP1-16) with β-AP. The detecting antibody is typically an affinity purified rabbit polyclonal antibody, specific for the amino terminus of β-AP. In the cell-based assay conditioned medium from H4 cells is tested by ELISA for the quantity of β-AP present. The cell-based assay can be used to identify compounds that inhibit β-AP production. The assay should detect agents that inhibit cleavage at the β-secretase and/or the γ-secretase cleavage site as well as detecting any agent that interferes with the production and/or release of β-AP.
A typical ELISA-based assay requires plating of the transfected cells at a density sufficient for the rapid detection of the secreted β-AP (experimentally predetermined for a particular stable cell population) in a 96-well format. Cells are plated for at least six hours prior to the introduction of the test compound at which time the growth medium is replaced by fresh medium containing the agent to be tested. Test agents may typically consist of synthetic compounds, secondary metabolites from bacterial or fungal fermentation extracts, or extracts from plant or marine samples. All synthetic agents are initially screened at doses ranging from 10-100 μM or in the case of extracts at sufficient dilution to minimize cytotoxicity. Incubation of the cells with the test agent will continue for approximately 16 hours at which time equal aliquots of media from each sample well is removed and placed into a previously prepared ELISA plate for β-AP quantitation. The ELISA is carried out in a manner described by others (Haass, et al., 1992; Hawlow and Lane, 1988) and the β-AP signal quantitated. Results are obtained by analysis of the ELISA plate following development and comparison to the mock treated cell populations and samples in which known amounts of β-AP were added to construct a standard concentration curve. […] If a compound is found to be active, then a dose response experiment is performed to determine the lowest dose of compound necessary to elicit the inhibition of the production of β-AP.

Row | Structure (SMILES) | Activity Rating (Inhibition of γ-Secretase)
1 | CC(C)CCCN[C@@H](CC1CCCCC1)[C@@H](O)C[C@H](C(=O)N[C@H](C)c1ccccc1)C(C)C (relative stereo) [Example 28, [αS-(αR*,γR*,δR*,N-(1S*))]γ-hydroxy-α-(1-methylethyl)-δ-[(4-methylpentyl)amino]-N-(1-phenylethyl)cyclohexanehexanamide hydrochloride] | +++ (+++ < = 10)
2 | CC(C)CCCN[C@@H](CC1CCCCC1)[C@@H](O)C[C@H](C(=O)NCCc1ccccc1)C(C)C (relative stereo) [Example 29, [αS-(αR*,γR*,δR*)]γ-hydroxy-α-(1-methylethyl)-δ-[(4-methylpentyl)amino]-N-(2-phenylethyl)cyclohexanehexanamide hydrochloride] | +++ (+++ < = 10)
3 | CC(C)CCCN[C@@H](CC1CCCCC1)[C@@H](O)C[C@H](C(=O)NCC(C)C)C(C)C (relative stereo) [Example 30, [αS-(αR*,γR*,δR*)]γ-hydroxy-α-(1-methylethyl)-δ-[(4-methylpentyl)amino]-N-(2-methylpropyl)cyclohexanehexanamide hydrochloride] | +++ (+++ < = 10)
4 | CC(C)CCCN[C@@H](CC1CCCCC1)[C@@H](O)C[C@H](C(=O)NCC(C)(C)C)C(C)C (relative stereo) [Example 31, [αS-(αR*,γR*,δR*)]N-(2,2-dimethylpropyl)-γ-hydroxy-α-(1-methylethyl)-δ-[(4-methylpentyl)amino]cyclohexanehexanamide hydrochloride] | +++ (+++ < = 10)
5 | CCCCNC(=O)[C@@H](C[C@H](O)[C@H](CC1CCCCC1)NCCC(C)CC)C(C)C (relative stereo) [Example 33, [αS-(αR*,γR*,δR*)]N-Butyl-γ-hydroxy-α-(1-methylethyl)-δ-[(3-methylpentyl)amino]cyclohexanehexanamide hydrochloride] | +++ (+++ < = 10)
6 | CCCCNC(=O)[C@@H](C[C@H](O)[C@H](CC1CCCCC1)NCc1cccc(C)c1)C(C)C (relative stereo) [Example 36, [αS-(αR*,γR*,δR*)]N-Butyl-γ-hydroxy-α-(1-methylethyl)-δ-[[(3-methylphenyl)methyl]amino]cyclohexanehexanamidehydrochloride] | +++ (+++ < = 10)
7 | CCCCNC(=O)[C@@H](C[C@H](O)[C@H](CC1CCCCC1)NCc1cccc(OC)c1)C(C)C (relative stereo) [Example 37, [αS-(αR*,γR*,δR*)]N-Butyl-γ-hydroxy-δ-[[(3-methoxyphenyl)methyl]amino]-α-(1-methylethyl)cyclohexanehexanamide hydrochloride] | ++ (++ > 10 & < = 25)
8 | CCCCNC(=O)[C@@H](C[C@H](O)[C@H](CC1CCCCC1)NCc1ccc2ccccc2c1)C(C)C (relative stereo) [Example 38, [αS-(αR*,γR*,δR*)]N-Butyl-γ-hydroxy-α-(1-methylethyl)-δ-[[(2-naphthyl)methyl]amino]cyclohexanehexanamide hydrochloride] | + (+ > 25 & < = 50 μM)
9 | CCCCNC(=O)[C@@H](C[C@H](O)[C@H](CC1CCCCC1)NCCOC(C)C)C(C)C (relative stereo) [Example 39, [αS-(αR*,γR*,δR*)]N-Butyl-γ-hydroxy-δ-[2-(1-methylethoxy)ethyl]amino]-α-(1-methylethyl)cyclohexanehexanamidehydrochloride] | + (+ > 25 & < = 50 μM)
10 | CC(C)CNC(=O)[C@@H](C[C@H](O)[C@H](CC1CCCCC1)NC1CCC(C)CC1)C(C)C (relative stereo) [Example 40, [αS(αR*,γR*,δR*)]-γ-Hydroxy-δ-[(4-methylcyclohexyl)amino]-α-(1-methylethyl)-N-(2-methylpropyl)cyclohexanehexanamide] | +++ (+++ < = 10)
11 | CC(C)CCC(C)N[C@@H](CC1CCCCC1)[C@@H](O)C[C@H](C(=O)NCC(C)C)C(C)C (relative stereo) [Example 41, [αS(αR*,γR*,δR*)]-γ-Hydroxy-δ-[(1,4-dimethylpentyl)amino]-α-(1-methylethyl)-N-(2-methylpropyl)cyclohexanehexanamide hydrochloride] | +++ (+++ < = 10)
12 | CC(C)CNC(=O)[C@@H](C[C@H](O)[C@H](CC1CCCCC1)NC1CCCC(C)C1)C(C)C (relative stereo) [Example 42, [αS(αR*,γR*,δR*)]-γ-Hydroxy-δ-[(3-methylcyclohexyl)amino]-α-(1-methylethyl)-N-(2-methylpropyl)cyclohexanehexanamide] | +++ (+++ < = 10)

More lines, now with the values ahead:

Row | Activity Rating (Inhibition of γ-Secretase) | Structure (SMILES)
13 | +++ (+++ < = 10) | CCCCNC(=O)[C@H](C)C[C@H](O)[C@H](CC1CCCCC1)NCCCC(C)C (relative stereo) [Example 19, [αS-(αR*,γR*,δR*)]N-Butyl-γ-hydroxy-α-methyl-δ-[(4-methylpentyl)amino]cyclohexanehexanamide hydrochloride]
14 | +++ (+++ < = 10) | CCCCNC(=O)[C@@H](C[C@H](O)[C@H](CC1CCCCC1)NCCCC(C)C)C(C)C (relative stereo) [Example 20, [αS-(αR*,γR*,δR*)]N-Butyl-γ-hydroxy-α-(1-methylethyl)-δ-[(4-methylpentyl)amino]cyclohexanehexanamide hydrochloride]
15 | +++ (+++ < = 10) | C=C(C)C[C@H](C[C@H](O)[C@H](CC1CCCCC1)NCCCC(C)C)C(=O)NCCCC (relative stereo) [Example 21, [αS-(αR*,γR*,δR*)]N-Butyl-γ-hydroxy-α-(2-methyl-2-propenyl)-δ-[(4-methylpentyl)amino]cyclohexanehexanamide hydrochloride]
16 | +++ (+++ < = 10) | CCCCNC(=O)[C@H](CC(C)C)C[C@H](O)[C@H](CC1CCCCC1)NCCCC(C)C (relative stereo) [Example 22, [αS-(αR*,γR*,δR*)]N-Butyl-γ-hydroxy-δ-[(4-methylpentyl)amino]-α-(2-methylpropyl)cyclohexanehexanamide hydrochloride]
17 | +++ (+++ < = 10) | C=CC[C@H](C[C@H](O)[C@H](CC1CCCCC1)NCCCC(C)C)C(=O)NCCCC (relative stereo) [Example 23, [αS-(αR*,γR*,δR*)]N-Butyl-γ-hydroxy-δ-[(4-methylpentyl)amino]-α-(2-propenyl)cyclohexanehexanamide hydrochloride]
18 | +++ (+++ < = 10) | CCCCNC(=O)[C@H](Cc1ccccc1)C[C@H](O)[C@H](CC1CCCCC1)NCCCC(C)C (relative stereo) [Example 25, [αS-(αR*,γR*,δR*)]N-Butyl-γ-hydroxy-δ-[(4-methylpentyl)amino]-α-(phenylmethyl)cyclohexanehexanamide hydrochloride]
19 | +++ (+++ < = 10) | CCCCNC(=O)[C@H](CC1CCCCC1)C[C@H](O)[C@H](CC1CCCCC1)NCCCC(C)C (relative stereo) [Example 26, [αS-(αR*,γR*,δR*)]-N-Butyl-α-(cyclohexylmethyl)-γ-hydroxy-δ-[(4-methylpentyl)amino]cyclohexanehexanamide, hydrochloride]
20 | +++ (+++ < = 10) | CSCCCNC(=O)[C@@H](C[C@H](O)[C@H](CC1CCCCC1)NCCCC(C)C)C(C)C (relative stereo) [Example 32, [αS-(αR*,γR*,δR*)]γ-hydroxy-α-(1-methylethyl)-δ-[(4-methylpentyl)amino]-N-[3-(methylthio)propyl]cyclohexanehexanamide hydrochloride]
21 | +++ (+++ < = 10) | CCCCNC(=O)[C@@H](C[C@H](O)[C@H](CC1CCCCC1)NCCCCC(C)C)C(C)C (relative stereo) [Example 34, [αS-(αR*,γR*,δR*)]N-Butyl-γ-hydroxy-α-(1-methylethyl)-δ-[(5-methylhexyl)amino]cyclohexanehexanamide hydrochloride]
22 | +++ (+++ < = 10) | CCCCNC(=O)[C@@H](C[C@H](O)[C@H](CC1CCCCC1)NCCC(C)C)C(C)C (relative stereo) [Example 35, [αS-(αR*,γR*,δR*)]N-Butyl-γ-hydroxy-δ-[(3-methylbutyl)amino]-α-(1-methylethyl)cyclohexanehexanamide hydrochloride]
